Experimental data taken from US5789188A, “Tetracycline-efflux pump inhibitor screening methods” (priority 1996, dated 1998).
Like-named read-outs stand apart in the source and are kept apart here.

Key:
[1] = system: strain KB3ind; assay type: cell-based, E. coli; on Induction Assay response: key: ±: Possible positive; +: Weak positive; ++: Stronger positive; -: Negative
Experimental: (§1) To detect tetracyclines, a plate assay is developed that is similar to one described previously (11). Cells are grown in Luria Broth (adjusted with NaOH to pH 7.5) with 25 μg/ml of kanamycin to a cell density of 0.5 absorbance units (600 nm). A 25 ml sample of the culture is harvested by centrifugation and resuspended in 1 ml of broth. The cells are mixed with 25 ml of soft agar (1%, wt/vol) and poured onto 100 ml of LB (pH 7.5)+ kanamycin, within a 22 cm^2 NUNC plate (Corning). Samples are applied by spotting from 2 to 15 μl, or by applying a disc impregnated with a compound, and the plate is incubated for 3-4 hours at 37° C. The plates are overlaid with a solution containing 13.5 mg of 6-bromo-2-naphthyl-β-D-galactopyranoside side and 86.5 mg of fast blue RR (Sigma) dissolved in 2 ml of dimethylsulfoxide, to which 25 ml of soft agar is added. β-Galactosidase is detected by the presence of a purple spot.

[2] = system: tetracycline efflux pump (strain KB4 or KB5); experiment: Inhibition Assay, plate assay (agar with 5 ng/ml of tetracycline); further: key: ±: Possible positive; +: Weak positive; ++: Stronger positive; -: Negative; assay type: cell-based, E. coli; conditions: disc on assay plate
Experimental: as §1
Two assays are developed for detecting inhibitors of the tetA gene product (using strain KB5), or the tetK gene product (using strain KB4). In the Inhibition Assay, cells of strain KB4 or KB5 are treated as described in the tetracycline screen above, except that the agar medium contains 5 ng/ml of tetracycline. Alternatively a Liquid Assay is also developed. Cells are first grown in LB (pH 7.5). Then cells are shifted to medium containing 5 ng/ml of tetracycline, and tetracycline-containing samples are added to aliquots. Cells are then incubated and assayed as described for the Tetracycline Assay. […] However, the intracellular concentration is reduced in tetracycline resistant strains due to the action of the efflux pump, so more tetracycline would be required in the medium to accumulate sufficient tetracycline inside the cell to induce. The Inhibition Assay is designed to detect compounds that cause β-galactosidase induction in the presence of sub-inducing levels of tetracycline for a resistant strain.

| Compound | response in the Tetracycline Assay (β-galactosidase induction) ([1]; strain KB3ind, plate assay (plate or liquid assay)) | Induction Assay response ([1]; disc on assay plate) | Inhibition Assay response [2] | Induction Assay response [1] |
| --- | --- | --- | --- | --- |
| CN(C)C1C(=O)C(C(N)=O)=C(O)C2(O)C(=O)C3=C(O)c4c(O)ccc(Cl)c4C(O)C3CC12 (stereo not drawn) [6-dimethyl chlortetracycline] | capable of detecting |  |  |  |
| NCC[C@H](O)C(=O)N[C@@H]1C[C@H](N)[C@@H](O[C@H]2O[C@H](CN)[C@@H](O)[C@H](O)[C@H]2O)[C@H](O)[C@H]1O[C@H]1O[C@H](CO)[C@@H](O)[C@H](N)[C@H]1O [Amikacin] |  | - | - |  |
| CC1(C)S[C@@H]2[C@H](NC(=O)[C@H](N)c3ccccc3)C(=O)N2[C@H]1C(=O)O [Ampicillin] |  | + |  |  |
| CC1(C)S[C@@H]2[C@H](NC(=O)[C@H](NC(=O)N3CCNC3=O)c3ccccc3)C(=O)N2[C@H]1C(=O)O [Azlocillin] |  |  | - |  |
| C[C@H]1[C@H](NC(=O)/C(=N\OC(C)(C)C(=O)O)c2csc(N)n2)C(=O)N1S(=O)(=O)O [Aztreonam] |  | - | - |  |
| CC1(C)S[C@@H]2[C@H](NC(=O)C(C(=O)O)c3ccccc3)C(=O)N2[C@H]1C(=O)O (stereo partly drawn) [Carbenicillin] |  | + | + |  |
| Cn1nnnc1SCC1=C(C(=O)O)N2C(=O)[C@@H](NC(=O)[C@H](O)c3ccccc3)[C@H]2SC1 [Cefamandole] |  | ± | + |  |
| CO/N=C(\C(=O)N[C@@H]1C(=O)N2C(C(=O)O)=C(COC(C)=O)CS[C@H]12)c1csc(N)n1 [Cefotaxime] |  | + |  |  |
| CO[C@@]1(NC(=O)Cc2cccs2)C(=O)N2C(C(=O)O)=C(COC(N)=O)CS[C@@H]21 [Cefoxitin] |  |  | + |  |
| NC(=O)c1cc[n+](CC2=C(C(=O)O)N3C(=O)[C@@H](NC(=O)[C@@H](c4ccccc4)S(=O)(=O)[O-])[C@H]3SC2)cc1 [Cefsulodin] |  |  | ± |  |
| CC(C)(O/N=C(\C(=O)N[C@@H]1C(=O)N2C(C(=O)[O-])=C(C[n+]3ccccc3)CS[C@H]12)c1csc(N)n1)C(=O)O [Ceftazidine] |  | ++ | ++ |  |
| O=C(Cc1cccs1)N[C@@H]1C(=O)N2C(C(=O)[O-])=C(C[n+]3ccccc3)CS[C@H]12 [Cephaleridine] |  |  | + |  |
| CC(=O)OCC1=C(C(=O)O)N2C(=O)[C@@H](NC(=O)Cc3cccs3)[C@H]2SC1 [Cephalethin] |  | + | + |  |
| O=C(N[C@H](CO)[C@H](O)c1ccc([N+](=O)[O-])cc1)C(Cl)Cl [Chloremphenicol] |  | - | - |  |
| CCn1nc(C(=O)O)c(=O)c2cc3c(cc21)OCO3 [Cinoxacin] |  | ± | - |  |
| Cc1onc(-c2ccccc2Cl)c1C(=O)N[C@@H]1C(=O)N2[C@@H]1SC(C)(C)[C@@H]2C(=O)O [Cloxacillin] |  |  | - |  |
| CC[C@H]1OC(=O)[C@H](C)[C@@H](O[C@H]2C[C@@](C)(OC)[C@@H](O)[C@H](C)O2)[C@H](C)[C@@H](O[C@@H]2O[C@H](C)C[C@H](N(C)C)[C@H]2O)[C@](C)(O)C[C@@H](C)C(=O)[C@H](C)[C@@H](O)[C@]1(C)O [Erythromycin] |  | - | - |  |
| CC[n+]1c(-c2ccccc2)c2cc(N)ccc2c2ccc(N)cc21 [Ethidium bromide] |  |  | - |  |
| C[C@@H](O)[C@H]1C(=O)N2C(C(=O)O)=C(SCCN=CN)C[C@H]12 [Imipenem] |  |  | ++ | ++ |
| NC[C@H]1O[C@H](O[C@H]2[C@H](O)[C@@H](O[C@H]3O[C@H](CO)[C@@H](O)[C@H](N)[C@H]3O)[C@H](N)C[C@@H]2N)[C@H](O)[C@@H](O)[C@@H]1O [Kanamycin] |  |  | - | - |
| COc1cccc(OC)c1C(=O)N[C@@H]1C(=O)N2[C@@H]1SC(C)(C)[C@@H]2C(=O)O [Methicillin] |  | - | - |  |
| CO[C@@]1(NC(=O)C(C(=O)O)c2ccc(O)cc2)C(=O)N2C(C(=O)O)=C(CSc3nnnn3C)CO[C@@H]21 (stereo partly drawn) [Moxalactam] |  | - | + |  |

| Compound | response in the Tetracycline Assay (β-galactosidase induction) ([1]; strain KB3ind, plate assay (plate or liquid assay)) | Induction Assay response ([1]; disc on assay plate) | Inhibition Assay response [2] | Induction Assay response [1] |
| --- | --- | --- | --- | --- |
| CCOc1ccc2ccccc2c1C(=O)N[C@@H]1C(=O)N2[C@@H]1SC(C)(C)[C@@H]2C(=O)O [Nafcillin] |  | - | - |  |
| CCn1cc(C(=O)O)c(=O)c2ccc(C)nc21 [Nalidixic Acid] |  | - | - |  |
| CCn1cc(C(=O)O)c(=O)c2cc(F)c(N3CCNCC3)cc21 [Norfloxacin] |  | - | - |  |
| CO[C@@H]1[C@@H](OC(N)=O)[C@@H](O)[C@H](Oc2ccc3c(O)c(NC(=O)c4ccc(O)c(CC=C(C)C)c4)c(=O)oc3c2C)OC1(C)C [Novobiocin] |  | - | - |  |
| C[C@@H]1[C@H](O)[C@@H](C)/C=C/C=C/CC/C=C/C=C/C=C/C=C/C(O[C@H]2O[C@H](C)[C@@H](O)[C@H](N)[C@@H]2O)CC2O[C@](O)(CC(O)C(O)CCC(O)CC(O)CC(O)CC(=O)O[C@H]1C)CC(O)C2C(=O)O (stereo partly drawn) [Nystatin] |  | ++ | - |  |
| Cc1onc(-c2ccccc2)c1C(=O)N[C@@H]1C(=O)N2[C@@H]1SC(C)(C)[C@@H]2C(=O)O [Oxacillin] |  | - | - |  |
| CC1(C)S[C@@H]2[C@H](NC(=O)Cc3ccccc3)C(=O)N2[C@H]1C(=O)O [Penicillin G] |  | - | - |  |
| CCN1CCN(C(=O)N[C@@H](C(=O)N[C@@H]2C(=O)N3[C@@H]2SC(C)(C)[C@@H]3C(=O)O)c2ccccc2)C(=O)C1=O [Piperacillin] |  | ± | - |  |
| CO[C@H]1/C=C/O[C@@]2(C)Oc3c(C)c(O)c4c(O)c(c(/C=N/N5CCN(C)CC5)c(O)c4c3C2=O)NC(=O)/C(C)=C\C=C\[C@H](C)[C@H](O)[C@@H](C)[C@@H](O)[C@@H](C)[C@H](OC(C)=O)[C@@H]1C [Rifampin] |  |  | - | - |
| [H]/N=C(/N)N[C@H]1[C@H](O)[C@@H](O)[C@H](O[C@@H]2O[C@@H](C)[C@](O)(C=O)[C@H]2O[C@@H]2O[C@@H](CO)[C@H](O)[C@@H](O)[C@@H]2NC)[C@@H](N/C(N)=N\[H])[C@@H]1O [Streptomycin] |  | - | - |  |
| Nc1ccc(S(=O)(=O)Nc2ccc(Cl)nn2)cc1 [Sulfachloropyridazine] |  | - | - |  |
| Nc1ccc(S(=O)(=O)Nc2ncccn2)cc1 [Sulfadiazine] |  |  | - | - |
| Cc1nnc(NS(=O)(=O)c2ccc(N)cc2)s1 [Sulfamethizole] |  | - | - |  |
| Nc1ccc(S(=O)(=O)Nc2nccs2)cc1 [Sulfathiazole] |  | - | - |  |
| CC1(C)S[C@@H]2[C@H](NC(=O)[C@H](C(=O)O)c3ccsc3)C(=O)N2[C@H]1C(=O)O [Ticarcillin] |  | + | + |  |
| NC[C@H]1O[C@H](O[C@H]2[C@H](O)[C@@H](O[C@H]3O[C@H](CO)[C@@H](O)[C@H](N)[C@H]3O)[C@H](N)C[C@@H]2N)[C@H](N)C[C@@H]1O [Tobramycin] |  | - | - |  |
| CN[C@H](CC(C)C)C(=O)N[C@H]1C(=O)N[C@@H](CC(N)=O)C(=O)N[C@H]2C(=O)N[C@H]3C(=O)N[C@H](C(=O)N[C@H](C(=O)O)c4cc(O)cc(O)c4-c4cc3ccc4O)[C@H](O)c3ccc(c(Cl)c3)Oc3cc2cc(c3O[C@@H]2O[C@H](CO)[C@@H](O)[C@H](O)[C@H]2O[C@H]2C[C@](C)(N)[C@H](O)[C@H](C)O2)Oc2ccc(cc2Cl)[C@H]1O [Vancomycin] |  |  | - | ± |
| Bacitracin |  | - | - |  |
| Colistin |  | - | - |  |
| Gentamicin |  | - | - |  |
| Neomycin |  | - |  |  |
| Polymyxin B |  | - | - |  |
